Consider 15 molecules from US9994587B2, “HIV protease inhibitors” (priority 2014, dated 2018).

This experiment has as its target T1, wildtype HIV-1 protease (Human immunodeficiency virus type 1 group M subtype B, UniProt P04585).
T1 construct: preincubated with the HIV-1 protease (wild type) enzyme in assay buffer; made in house; host or cells: Escherichia coli
Nature of the experiment: Assay for inhibition of microbial expressed HIV protease (Pepcleav). It counts as biochemical. The note with it: wild type HIV-1 protease 20 pM, peptide substrate 400 micromolar, pH 5.5; mean of at least two independent experiments. The method, boiled down:
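E. coli-expressed enzyme preincubated with inhibitor 30 min at room temperature in 50 mM sodium acetate pH 5.5, 100 mM NaCl, 0.1% BSA, then 400 micromolar peptide substrate added with 20 picomolar protease (final), 1 h at 30° C. Product quantified by LC-MS/MS peak area after formic acid/indinavir quench.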
Usually IC50 stands for the concentration needed to halve the response being measured. On to `COC(=O)N[C@H](C(=O)Nc1ccccc1CC[C@@H]1CNC[C@@H](COc2cccc(F)c2)O1)C(c1ccccc1)c1ccccc1` [Example 47, N-[2-(2-{(2R,6S)-6-[(3-fluorophenoxy)methyl]morpholin-2-yl}ethyl)phenyl]-Nα-(methoxycarbonyl)-β-phenyl-L-phenylalaninamide], for which the IC50 was 12 nM.

In the case of `COC(=O)N[C@H](C(=O)Nc1ccccc1CC[C@@H]1CNC[C@@H](COCc2ccc(Cl)cc2)O1)C(c1ccccc1)c1ccccc1` [Example 59, methyl N-[(1S)-1-benzhydryl-2-[[2-[2-[(2R,6S)-6-[(4-chlorophenyl)methoxymethyl]morpholin-2-yl]ethyl]phenyl]amino]-2-oxo-ethyl]carbamate], the IC50 was determined as 62 nM. Compared with the last molecule, the IC50 is about 5.2-fold higher.

`COC(=O)N[C@H](C(=O)Nc1ccccc1CC[C@@H]1CNC[C@@H](CSc2nnc(Cn3nccc3C)o2)O1)C(c1ccccc1)c1ccccc1` [Example 33, methyl N-[(1S)-1-benzhydryl-2-[[2-[2-[(2R,6S)-6-[[5-[(5-methylpyrazol-1-yl)methyl]-1,3,4-oxadiazol-2-yl]sulfanylmethyl]morpholin-2-yl]ethyl]phenyl]amino]-2-oxo-ethyl]carbamate] came in with an IC50 of 0.67 nM.

`COC(=O)N[C@H](C(=O)Nc1ccccc1CC[C@@H]1CNC[C@@H](COc2cccc3[nH]ccc23)O1)C(c1ccccc1)c1ccccc1` [Example 30, methyl N-[(1S)-1-benzhydryl-2-[[2-[2-[(2R,6S)-6-(1H-indol-4-yloxymethyl)morpholin-2-yl]ethyl]phenyl]amino]-2-oxo-ethyl]carbamate] had an IC50 of 130 nM.

Turning to `COC(=O)N[C@H](C(=O)Nc1cncnc1CC[C@@H]1CNC[C@@H](COc2ccc(C#N)cc2)O1)C(c1ccccc1)c1ccccc1` [Example 79, N-[4-(2-{(2R,6S)-6-[(4-cyanophenoxy)methyl]morpholin-2-yl}ethyl)pyrimidin-5-yl]-Nα-(methoxycarbonyl)-β-phenyl-L-phenylalaninamide], the IC50 amounted to 120 nM. This IC50 and that of the molecule before are within 1.5-fold of each other.

With `COC(=O)N[C@H](C(=O)Nc1ccccc1CC[C@@H]1CNC[C@@H](COc2ccc(S(C)(=O)=O)cc2C)O1)C(c1ccccc1)c1ccccc1` [Example 28, methyl N-[(1S)-1-benzhydryl-2-[[2-[2-[(2R,6S)-6-[(2-methyl-4-methylsulfonyl-phenoxy)methyl]morpholin-2-yl]ethyl]phenyl]amino]-2-oxo-ethyl]carbamate], the 50% inhibitory concentration (IC50) was 18 nM.

In turn, `COC(=O)N[C@H](C(=O)Nc1ccccc1CCC1CNC[C@@H](CSc2ccc(Cl)cc2)O1)C(c1ccccc1)c1ccccc1` (stereo partly drawn) [Example 6, methyl N-[(1S)-1-benzhydryl-2-[[2-[2-[(6S)-6-[(4-chlorophenyl)sulfanylmethyl]morpholin-2-yl]ethyl]phenyl]amino]-2-oxo-ethyl]carbamate] registered an IC50 of 1.9 nM.

`COC(=O)N[C@H](C(=O)Nc1cncc(F)c1CC[C@@H]1CNC[C@@H](COc2ccc(C#N)cc2)O1)C(c1ccccc1)c1ccccc1` [Example 82, Methyl[(1S)-2-{[4-(2-{(2R,6S)-6-[(4-cyanophenoxy)methyl]morpholin-2-yl}ethyl)-5-fluoropyridin-3-yl]amino}-1-(diphenylmethyl)-2-oxoethyl]carbamate] displayed an IC50 of 9.8 nM. Against the preceding molecule, the IC50 is about 5.2-fold higher.

`COC(=O)N[C@H](C(=O)Nc1ccccc1CC[C@@H]1CNC[C@@H](/C=C/c2ccc(S(C)(=O)=O)cc2)O1)C(c1ccccc1)c1ccccc1` [Example 61, N-α-(methoxycarbonyl)-N-(2-{2-[(2R,6R)-6-{(E)-2-[4-(methylsulfonyl)phenyl]ethenyl}morpholin-2-yl]ethyl}phenyl)-β-phenyl-L-phenylalaninamide] returned an IC50 of 5.9 nM.

For `COC(=O)N[C@H](C(=O)Nc1nccnc1CC[C@@H]1CNC[C@@H](CSc2ccc(Cl)cc2)O1)C(c1ccccc1)c1ccccc1` [Example 83, methyl N-[(1S)-1-benzhydryl-2-[[3-[2-[(2R,6S)-6-[(4-chlorophenyl)sulfanylmethyl]morpholin-2-yl]ethyl]pyrazin-2-yl]amino]-2-oxo-ethyl]carbamate], the IC50 was 27 nM. Compared with the last molecule, the IC50 is about 4.6-fold higher.

Consider `COC(=O)N[C@H](C(=O)Nc1ccccc1CC[C@@H]1CNC[C@@H](CCOc2ccc(C#N)cc2)O1)C(c1ccccc1)c1ccccc1` [Example 64, N-[2-(2-{(2R,6R)-6-[2-(4-cyanophenoxy)ethyl]morpholin-2-yl}ethyl)phenyl]-Nα-(methoxycarbonyl)-β-phenyl-L-phenylalaninamide], for which the IC50 was determined as 28 nM.

The molecule `O=C(Nc1c(CC[C@@H]2CNC[C@@H](CSc3ccc(Cl)cc3)O2)cc[nH]c1=O)[C@@H](NCC(F)(F)F)C(c1ccccc1)c1ccccc1` [Example 89, N-(4-{2-[(2R,6S)-6-{[(4-chlorophenyl)sulfanyl]methyl}morpholin-2-yl]ethyl}-2-oxo-1,2-dihydropyridin-3-yl)-β-phenyl-Nα-(2,2,2-trifluoroethyl)-L-phenylalaninamide] yielded an IC50 of 12.3 nM.

Molecule `COC(=O)N[C@H](C(=O)Nc1ccccc1CC[C@@H]1CNC[C@@H](CSc2ccc(Cl)cc2)O1)[C@@H](c1ccccc1)c1c[nH]c2ncccc12` [Example 67, (βS)-N-(2-{2-[(2R,6S)-6-{[(4-chlorophenyl)sulfanyl]methyl}morpholin-2-yl]ethyl}phenyl)-Nα-(methoxycarbonyl)-β-1H-pyrrolo[2,3-b]pyridin-3-yl-L-phenylalaninamide] registered an IC50 of 0.11 nM.

The molecule `COC(=O)N[C@H](C(=O)Nc1c(F)cccc1CC[C@@H]1CNC[C@@H](COc2ccc(C#N)cc2)O1)C(c1ccccc1)c1ccccc1` [Example 76, N-[2-(2-{(2R,6S)-6-[(4-cyanophenoxy)methyl]morpholin-2-yl}ethyl)-6-fluorophenyl]-Nα-(methoxycarbonyl)-β-phenyl-L-phenylalaninamide] had an IC50 of 9.1 nM.

Molecule `COC(=O)N[C@H](C(=O)Nc1ccccc1CC[C@@H]1CNC[C@@H](COc2ccc(Br)cc2)O1)C(c1ccccc1)c1ccccc1` [Example 9, methyl N-[(1S)-1-benzhydryl-2-[[2-[2-[(2R,6S)-6-[(4-bromophenoxy)methyl]morpholin-2-yl]ethyl]phenyl]amino]-2-oxo-ethyl]carbamate] registered an IC50 of 18 nM. This IC50 is about 2-fold higher than that of the molecule before.
